Reference: ChEMBL document CHEMBL5058646 (2022)

Legend:
[1] = molecular target: AP2-associated protein kinase 1 (Homo sapiens) (UniProt Q2M2I8); assay: AAK1 SGC Tm panel (DSF); conditions: Compound concentration 20.0 uM
[2] = molecular target: Ephrin type-A receptor 4 (Homo sapiens) (UniProt P54764); assay: EPHA4 SGC Tm panel (DSF); conditions: Compound concentration 20.0 uM
[3] = molecular target: G protein-coupled receptor kinase 5 (Homo sapiens) (UniProt P34947); assay: GPRK5 SGC Tm panel (DSF); conditions: Compound concentration 20.0 uM
Chain of G protein-coupled receptor kinase 5 (Homo sapiens) (P34947 whole entry, looked up): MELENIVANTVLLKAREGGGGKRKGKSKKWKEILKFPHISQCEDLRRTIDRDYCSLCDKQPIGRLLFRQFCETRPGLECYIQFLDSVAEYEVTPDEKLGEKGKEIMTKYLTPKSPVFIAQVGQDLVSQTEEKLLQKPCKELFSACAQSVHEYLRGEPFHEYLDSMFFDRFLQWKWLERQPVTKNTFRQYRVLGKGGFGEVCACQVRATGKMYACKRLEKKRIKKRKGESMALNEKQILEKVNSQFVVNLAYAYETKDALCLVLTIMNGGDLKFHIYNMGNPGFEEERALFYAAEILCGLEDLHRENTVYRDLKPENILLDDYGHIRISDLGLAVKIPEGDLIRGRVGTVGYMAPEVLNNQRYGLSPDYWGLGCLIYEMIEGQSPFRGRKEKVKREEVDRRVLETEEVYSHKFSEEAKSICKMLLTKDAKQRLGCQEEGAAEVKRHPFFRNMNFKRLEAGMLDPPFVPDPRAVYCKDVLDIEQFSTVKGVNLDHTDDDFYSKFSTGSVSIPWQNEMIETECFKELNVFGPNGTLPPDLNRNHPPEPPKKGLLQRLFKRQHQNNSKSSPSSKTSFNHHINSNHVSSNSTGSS

[4] = molecular target: Serine/threonine-protein kinase Nek2 (Homo sapiens) (UniProt P51955); assay: NEK2 SGC Tm panel (DSF); conditions: Compound concentration 20.0 uM
Chain of Serine/threonine-protein kinase Nek2 (Homo sapiens) (P51955 whole entry): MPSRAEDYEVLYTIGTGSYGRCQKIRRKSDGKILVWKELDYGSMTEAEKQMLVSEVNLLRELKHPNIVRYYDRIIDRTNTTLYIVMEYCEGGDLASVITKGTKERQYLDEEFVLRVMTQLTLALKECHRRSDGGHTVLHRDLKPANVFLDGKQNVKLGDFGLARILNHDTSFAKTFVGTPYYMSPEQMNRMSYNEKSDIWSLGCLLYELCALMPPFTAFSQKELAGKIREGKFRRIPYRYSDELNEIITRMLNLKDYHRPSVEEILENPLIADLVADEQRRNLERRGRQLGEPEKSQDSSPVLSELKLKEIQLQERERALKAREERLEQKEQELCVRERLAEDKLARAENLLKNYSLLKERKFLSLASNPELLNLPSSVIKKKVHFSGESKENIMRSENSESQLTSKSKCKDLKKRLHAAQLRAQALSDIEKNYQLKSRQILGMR

[5] = molecular target: Serine/threonine-protein kinase Nek7 (Homo sapiens) (UniProt Q8TDX7); assay: NEK7 SGC Tm panel (DSF); conditions: Compound concentration 20.0 uM
Chain of Serine/threonine-protein kinase Nek7 (Homo sapiens) (Q8TDX7 whole entry, looked up): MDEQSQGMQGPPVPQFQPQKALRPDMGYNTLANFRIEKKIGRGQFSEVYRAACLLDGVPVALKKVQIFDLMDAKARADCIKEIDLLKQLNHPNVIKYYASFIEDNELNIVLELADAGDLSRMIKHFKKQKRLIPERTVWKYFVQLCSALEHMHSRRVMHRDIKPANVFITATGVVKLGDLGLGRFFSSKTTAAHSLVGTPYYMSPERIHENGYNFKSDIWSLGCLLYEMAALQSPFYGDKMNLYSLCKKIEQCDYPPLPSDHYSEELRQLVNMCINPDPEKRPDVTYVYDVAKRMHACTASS

[6] = molecular target: STE20/SPS1-related proline-alanine-rich protein kinase (Homo sapiens) (UniProt Q9UEW8); assay: STK39 SGC Tm panel (DSF); conditions: Compound concentration 20.0 uM
[7] = molecular target: Lymphokine-activated killer T-cell-originated protein kinase (Homo sapiens) (UniProt Q96KB5); assay: TOPK SGC Tm panel (DSF); conditions: Compound concentration 20.0 uM
Chain of Lymphokine-activated killer T-cell-originated protein kinase (Homo sapiens) (Q96KB5 whole entry): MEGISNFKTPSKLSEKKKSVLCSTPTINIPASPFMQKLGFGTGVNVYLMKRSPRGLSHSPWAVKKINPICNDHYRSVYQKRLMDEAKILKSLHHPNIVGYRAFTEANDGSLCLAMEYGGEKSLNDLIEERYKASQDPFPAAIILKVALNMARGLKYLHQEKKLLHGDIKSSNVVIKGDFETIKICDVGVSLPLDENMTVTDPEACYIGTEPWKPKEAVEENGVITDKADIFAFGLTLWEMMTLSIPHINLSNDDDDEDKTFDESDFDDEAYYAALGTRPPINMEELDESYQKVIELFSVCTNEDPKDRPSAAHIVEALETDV

[8] = molecular target: 5-hydroxytryptamine receptor 2A (Homo sapiens) (UniProt P28223); conditions: Compound concentration 10.0 uM
Chain of 5-hydroxytryptamine receptor 2A (Homo sapiens) (P28223 whole entry): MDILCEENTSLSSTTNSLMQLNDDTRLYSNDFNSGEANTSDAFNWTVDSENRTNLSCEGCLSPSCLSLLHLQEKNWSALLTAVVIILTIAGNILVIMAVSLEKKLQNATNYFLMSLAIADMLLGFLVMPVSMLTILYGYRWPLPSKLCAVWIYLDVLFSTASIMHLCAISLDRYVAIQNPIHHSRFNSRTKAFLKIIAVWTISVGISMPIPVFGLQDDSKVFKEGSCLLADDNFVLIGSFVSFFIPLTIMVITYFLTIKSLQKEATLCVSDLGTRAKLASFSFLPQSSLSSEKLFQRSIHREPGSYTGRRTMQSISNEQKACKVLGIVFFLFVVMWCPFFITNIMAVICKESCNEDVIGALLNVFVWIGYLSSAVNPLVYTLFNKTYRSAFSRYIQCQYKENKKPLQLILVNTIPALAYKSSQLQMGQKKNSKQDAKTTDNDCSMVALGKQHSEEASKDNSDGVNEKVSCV

[9] = molecular target: Histamine H4 receptor (Homo sapiens) (UniProt Q9H3N8); conditions: Compound concentration 10.0 uM
[10] = molecular target: Alpha-2A adrenergic receptor (Homo sapiens) (UniProt P08913); conditions: Compound concentration 10.0 uM
Chain of Alpha-2A adrenergic receptor (Homo sapiens) (P08913 whole entry): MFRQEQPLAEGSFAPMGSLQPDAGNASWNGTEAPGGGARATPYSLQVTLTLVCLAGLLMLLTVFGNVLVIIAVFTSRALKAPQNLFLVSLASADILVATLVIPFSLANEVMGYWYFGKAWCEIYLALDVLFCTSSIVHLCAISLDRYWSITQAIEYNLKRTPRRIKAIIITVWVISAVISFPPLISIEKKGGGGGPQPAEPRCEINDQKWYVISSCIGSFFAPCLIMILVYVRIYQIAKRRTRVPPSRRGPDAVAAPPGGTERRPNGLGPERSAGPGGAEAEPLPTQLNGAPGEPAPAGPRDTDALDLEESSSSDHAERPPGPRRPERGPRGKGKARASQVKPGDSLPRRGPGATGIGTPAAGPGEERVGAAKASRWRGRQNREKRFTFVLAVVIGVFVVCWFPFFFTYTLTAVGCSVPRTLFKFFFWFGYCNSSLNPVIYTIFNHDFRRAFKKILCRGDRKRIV

[11] = molecular target: Alpha-1D adrenergic receptor (Homo sapiens) (UniProt P25100); conditions: Compound concentration 10.0 uM
[12] = molecular target: Zinc finger and BTB domain-containing protein 43 (Homo sapiens) (UniProt O43298); conditions: SUD4, Compound concentration 1.0 uM
Chain of Zinc finger and BTB domain-containing protein 43 (Homo sapiens) (O43298 whole entry, the tested form may be a part): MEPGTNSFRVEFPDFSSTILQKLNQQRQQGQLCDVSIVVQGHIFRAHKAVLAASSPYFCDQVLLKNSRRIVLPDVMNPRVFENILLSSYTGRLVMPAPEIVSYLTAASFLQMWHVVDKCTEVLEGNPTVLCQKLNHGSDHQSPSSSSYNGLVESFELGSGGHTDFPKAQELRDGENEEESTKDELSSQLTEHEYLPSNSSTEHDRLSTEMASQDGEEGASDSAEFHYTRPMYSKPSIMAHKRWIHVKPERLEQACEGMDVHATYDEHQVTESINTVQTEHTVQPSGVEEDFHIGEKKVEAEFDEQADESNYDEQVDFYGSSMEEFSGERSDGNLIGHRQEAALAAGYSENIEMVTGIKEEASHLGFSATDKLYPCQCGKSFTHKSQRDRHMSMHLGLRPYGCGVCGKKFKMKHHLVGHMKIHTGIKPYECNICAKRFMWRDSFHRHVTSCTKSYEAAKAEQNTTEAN

[13] = molecular target: Protein archease (Homo sapiens) (UniProt Q8IWT0); conditions: SUD4, Compound concentration 1.0 uM
[14] = molecular target: T1, Zinc finger and BTB domain-containing protein 9 (Homo sapiens) (UniProt Q96C00); conditions: SUD4, Compound concentration 1.0 uM
T1 sequence (whole entry): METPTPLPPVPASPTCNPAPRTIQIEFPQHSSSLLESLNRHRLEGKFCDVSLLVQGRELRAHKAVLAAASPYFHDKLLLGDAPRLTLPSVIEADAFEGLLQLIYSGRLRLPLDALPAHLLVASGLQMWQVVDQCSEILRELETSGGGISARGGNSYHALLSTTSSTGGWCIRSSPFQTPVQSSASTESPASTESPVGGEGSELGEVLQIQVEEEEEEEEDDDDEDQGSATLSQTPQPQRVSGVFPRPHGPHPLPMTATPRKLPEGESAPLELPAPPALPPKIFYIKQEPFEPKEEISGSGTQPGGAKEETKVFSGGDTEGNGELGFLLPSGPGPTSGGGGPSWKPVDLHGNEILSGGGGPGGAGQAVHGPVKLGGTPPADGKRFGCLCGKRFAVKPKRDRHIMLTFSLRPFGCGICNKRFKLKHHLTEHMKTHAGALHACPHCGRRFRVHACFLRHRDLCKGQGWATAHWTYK

[15] = molecular target: T2, Zinc finger and BTB domain-containing protein 10 (Homo sapiens) (UniProt Q96DT7); conditions: SUD4, Compound concentration 1.0 uM
T2 sequence (whole entry): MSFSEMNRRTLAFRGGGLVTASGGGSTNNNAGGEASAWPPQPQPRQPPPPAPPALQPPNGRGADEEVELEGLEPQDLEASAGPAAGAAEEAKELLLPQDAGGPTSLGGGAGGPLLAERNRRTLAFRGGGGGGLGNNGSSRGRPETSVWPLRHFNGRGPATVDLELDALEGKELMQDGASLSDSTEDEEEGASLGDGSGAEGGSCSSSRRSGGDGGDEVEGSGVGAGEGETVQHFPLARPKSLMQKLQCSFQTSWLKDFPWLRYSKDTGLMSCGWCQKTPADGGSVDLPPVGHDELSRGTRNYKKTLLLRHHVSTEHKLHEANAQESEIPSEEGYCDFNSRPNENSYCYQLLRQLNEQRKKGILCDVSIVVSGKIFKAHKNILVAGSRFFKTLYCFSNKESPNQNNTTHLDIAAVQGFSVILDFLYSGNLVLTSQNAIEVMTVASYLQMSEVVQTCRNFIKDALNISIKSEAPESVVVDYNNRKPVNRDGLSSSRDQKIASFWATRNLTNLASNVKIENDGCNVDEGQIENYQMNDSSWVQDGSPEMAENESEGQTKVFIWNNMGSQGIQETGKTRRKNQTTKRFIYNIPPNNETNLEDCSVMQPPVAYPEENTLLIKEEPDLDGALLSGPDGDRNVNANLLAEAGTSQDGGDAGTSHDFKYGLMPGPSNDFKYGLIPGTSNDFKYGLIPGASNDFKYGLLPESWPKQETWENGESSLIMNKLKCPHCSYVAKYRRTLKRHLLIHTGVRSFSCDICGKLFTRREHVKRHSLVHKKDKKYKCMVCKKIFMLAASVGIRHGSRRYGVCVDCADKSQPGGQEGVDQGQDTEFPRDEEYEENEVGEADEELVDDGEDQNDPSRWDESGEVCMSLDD

[16] = molecular target: T3, Zinc finger protein 131 (Homo sapiens) (UniProt P52739); conditions: OCI-Ly1, Compound concentration 1.0 uM
T3 sequence (whole entry): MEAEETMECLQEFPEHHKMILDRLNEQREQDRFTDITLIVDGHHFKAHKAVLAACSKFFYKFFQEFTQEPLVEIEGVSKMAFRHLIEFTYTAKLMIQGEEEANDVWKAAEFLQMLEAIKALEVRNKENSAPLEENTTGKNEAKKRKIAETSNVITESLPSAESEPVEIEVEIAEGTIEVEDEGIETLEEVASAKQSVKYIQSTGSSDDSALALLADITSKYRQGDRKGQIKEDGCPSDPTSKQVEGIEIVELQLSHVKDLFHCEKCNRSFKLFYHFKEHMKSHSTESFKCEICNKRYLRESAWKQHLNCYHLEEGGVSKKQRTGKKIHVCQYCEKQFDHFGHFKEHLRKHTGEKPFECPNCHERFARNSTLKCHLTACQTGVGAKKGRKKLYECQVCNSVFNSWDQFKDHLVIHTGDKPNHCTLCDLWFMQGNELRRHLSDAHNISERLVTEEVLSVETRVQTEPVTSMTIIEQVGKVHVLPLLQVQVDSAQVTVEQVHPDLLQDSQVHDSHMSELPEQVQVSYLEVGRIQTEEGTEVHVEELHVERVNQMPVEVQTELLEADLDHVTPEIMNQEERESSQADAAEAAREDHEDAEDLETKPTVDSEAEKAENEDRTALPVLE

Chain of AP2-associated protein kinase 1 (Homo sapiens) (Q2M2I8 whole entry, looked up): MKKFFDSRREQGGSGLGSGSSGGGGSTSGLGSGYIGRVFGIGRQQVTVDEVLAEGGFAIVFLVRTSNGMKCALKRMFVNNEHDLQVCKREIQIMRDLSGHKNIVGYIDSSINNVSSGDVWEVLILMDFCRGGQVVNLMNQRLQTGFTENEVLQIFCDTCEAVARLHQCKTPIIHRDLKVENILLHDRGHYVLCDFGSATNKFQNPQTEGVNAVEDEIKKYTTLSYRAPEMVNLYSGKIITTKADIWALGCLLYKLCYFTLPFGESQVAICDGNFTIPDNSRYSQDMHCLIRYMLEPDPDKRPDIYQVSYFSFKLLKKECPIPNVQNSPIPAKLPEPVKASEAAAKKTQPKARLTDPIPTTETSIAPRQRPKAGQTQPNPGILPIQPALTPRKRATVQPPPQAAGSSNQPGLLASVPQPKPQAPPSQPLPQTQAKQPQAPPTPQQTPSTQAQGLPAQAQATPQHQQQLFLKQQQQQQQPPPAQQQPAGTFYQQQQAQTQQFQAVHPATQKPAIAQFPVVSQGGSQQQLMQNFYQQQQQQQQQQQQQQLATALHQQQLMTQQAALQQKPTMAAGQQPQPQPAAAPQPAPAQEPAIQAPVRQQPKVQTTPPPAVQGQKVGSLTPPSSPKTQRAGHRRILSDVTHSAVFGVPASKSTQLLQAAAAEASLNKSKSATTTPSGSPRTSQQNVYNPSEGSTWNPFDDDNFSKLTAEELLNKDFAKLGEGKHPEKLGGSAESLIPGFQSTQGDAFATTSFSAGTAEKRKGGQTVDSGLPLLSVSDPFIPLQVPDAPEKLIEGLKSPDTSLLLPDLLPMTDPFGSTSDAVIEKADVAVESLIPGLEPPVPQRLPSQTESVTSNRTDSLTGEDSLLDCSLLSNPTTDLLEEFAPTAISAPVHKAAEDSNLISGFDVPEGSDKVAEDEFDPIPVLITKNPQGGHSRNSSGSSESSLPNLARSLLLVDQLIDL
Chain of Ephrin type-A receptor 4 (Homo sapiens) (P54764 whole entry): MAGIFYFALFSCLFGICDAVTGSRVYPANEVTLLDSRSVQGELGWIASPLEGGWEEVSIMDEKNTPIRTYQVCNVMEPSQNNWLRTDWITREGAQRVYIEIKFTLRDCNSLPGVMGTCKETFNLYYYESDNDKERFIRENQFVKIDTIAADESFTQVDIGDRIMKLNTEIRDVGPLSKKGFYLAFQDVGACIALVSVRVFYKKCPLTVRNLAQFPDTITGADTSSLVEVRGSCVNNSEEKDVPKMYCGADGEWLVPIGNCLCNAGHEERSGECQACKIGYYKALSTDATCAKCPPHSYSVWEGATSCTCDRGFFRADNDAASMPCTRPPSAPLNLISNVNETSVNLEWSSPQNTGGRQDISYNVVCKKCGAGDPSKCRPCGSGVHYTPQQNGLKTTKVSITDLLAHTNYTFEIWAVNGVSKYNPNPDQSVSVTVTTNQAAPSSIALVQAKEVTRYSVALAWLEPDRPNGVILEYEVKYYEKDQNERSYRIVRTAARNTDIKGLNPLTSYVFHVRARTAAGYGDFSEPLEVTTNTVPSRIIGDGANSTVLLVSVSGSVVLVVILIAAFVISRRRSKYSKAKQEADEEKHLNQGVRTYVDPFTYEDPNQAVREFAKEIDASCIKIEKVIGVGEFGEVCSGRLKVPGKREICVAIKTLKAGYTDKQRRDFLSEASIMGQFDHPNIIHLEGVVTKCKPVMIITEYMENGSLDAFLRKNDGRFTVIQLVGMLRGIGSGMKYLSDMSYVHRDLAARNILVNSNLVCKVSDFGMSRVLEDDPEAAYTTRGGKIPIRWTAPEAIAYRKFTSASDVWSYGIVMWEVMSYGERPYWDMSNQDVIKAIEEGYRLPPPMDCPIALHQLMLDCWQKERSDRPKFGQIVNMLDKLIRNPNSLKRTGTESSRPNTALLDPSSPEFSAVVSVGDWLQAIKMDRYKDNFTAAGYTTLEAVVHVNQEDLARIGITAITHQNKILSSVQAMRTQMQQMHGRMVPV

C[C@@H]1CN(c2ncc(Cl)c(Nc3ccc4c(c3)n(CCC(C)(C)O)c(=O)n4C)n2)C[C@H](C)C1(F)F
inactive: Tm [1] 47 °C | Tm [2] 54 °C | Tm [3] 40 °C | Tm [4] 40 °C | Tm [5] 42 °C | Tm [6] 37 °C | Tm [7] 43 °C | inhibition [8] 23.6% | inhibition [9] -0.79% | inhibition [10] 14% | inhibition [11] 16% | LogFC [12] 0.0194 | LogFC [13] 0.104 | LogFC [14] 0.0873 | LogFC [15] 0.121 | LogFC [16] -0.712
